In US20260223850A1, “SUBSTITUTED PYRROLIDONE COMPOUND, PREPARATION METHOD THEREFOR, COMPOSITION AND APPLICATION THEREOF” (QINGDAO KINGAGROOT CHEMICAL COMPOUND CO., LTD., priority 2023, published 2026):

What was measured:
Format in all cases: in vivo
Echinochloa phyllopogon = test: Seedling stage sealing experiment for water-seeding; settings: 120 g a.i./ha, seedling stage sealing, 15 days, fresh weight control rate
From the text: (§1) The activity level criteria for plant damage (i.e., growth control rate) are as follows: • Level 9: completely dead; • Level 8: growth control rate greater than or equal to 90% and less than 100%; • Level 7: growth control rate greater than or equal to 80% and less than 90%; • Level 6: growth control rate greater than or equal to 70% and less than 80%; • Level 5: growth control rate greater than or equal to 50% and less than 70%; • Level 4: growth control rate greater than or equal to 30% and less than 50%; • Level 3: growth control rate greater than or equal to 20% and less than 30%; • Level 2: growth control rate greater than or equal to 10% and less than 20%; • Level 1: growth control rate less than 10%; • Level 0: no effect.
(§2) The above growth control rates are fresh weight control rates.
(§3) Echinochloa phyllopogon, Digitaria sanguinalis, Huaidao (rice cultivar), etc. were broadcasted on the surface of nutrition bowls filled with soil and fully covered by soil. The foregoing well-prepared nutrition bowls were then placed in a cultivation box with water filled to a suitable height to keep the soil in the nutrition bowls moist. A test compound of the present invention was individually dissolved with acetone, then diluted into solution of a certain concentration using a certain amount of water, and sprayed using a spray tower. The plants were placed on a greenhouse seedbed and cultured for 15 days, and the experimental results were then collected. The compound was applied at 120, 60, 30 and 15 g a.i./ha in triplicate, and the results were averaged.

Echinochloa crusgalli = test: as above; settings: 120 g a.i./ha, 15 days, fresh weight control rate
From the text: as §1, §2, §3

Huaidao (rice cultivar) = test: Seedling stage sealing experiment for water-seeding (crop safety); settings: 120 g a.i./ha, 15 days, fresh weight control rate; for Huaidao (rice cultivar) plant damage level: seedling stage sealing; for Huaidao (rice cultivar) plant damage level (growth control rate): spray, seedling stage sealing for water-seeding
From the text: as §1, §2, §3

[1] = spray, seedling stage sealing for water-seeding

Row | Compound | Echinochloa phyllopogon activity level (growth control rate) (Echinochloa phyllopogon) | Echinochloa crusgalli activity level (growth control rate) (Echinochloa crusgalli; seedling stage sealing) | Huaidao (rice cultivar) plant damage level (Huaidao (rice cultivar)) | Echinochloa crusgalli activity level (growth control rate) (Echinochloa crusgalli; [1]) | Huaidao (rice cultivar) plant damage level (growth control rate) (Huaidao (rice cultivar))
1 | CN1C[C@H](c2cc(F)cc(C(F)(F)F)c2)[C@@H](C(=O)Nc2cnn(C)c2Cl)C1=O [67′] | 8 (Level 8: growth control rate greater than or equal to 90% and less than 100%) | 9 | 1 (Level 1: growth control rate less than 10%) | – | –
2 | Cc1cc([C@H]2CN(C)C(=O)[C@@H]2C(=O)Nc2cnn(C)c2Cl)cc(C(F)(F)F)c1 [69′] | 9 | 9 | 1 (Level 1: growth control rate less than 10%) | – | –
3 | CC(C)n1ncc(NC(=O)[C@H]2C(=O)N(C)C[C@@H]2c2cccc(C(F)(F)F)c2)c1Cl [97′] | 9 | 9 | 0 | – | –
4 | CN1C[C@H](c2cccc(C(F)(F)F)c2)[C@@H](C(=O)Nc2cnn(C)c2F)C1=O [119′] | 9 | 9 | 0 | – | –
5 | COCn1ncc(NC(=O)[C@H]2C(=O)N(C)C[C@@H]2c2cccc(C)c2)c1Cl [127′] | 8 (Level 8: growth control rate greater than or equal to 90% and less than 100%) | 9 | 0 | – | –
6 | C#CCn1ncc(NC(=O)[C@H]2C(=O)N(C)C[C@@H]2c2cccc(C)c2)c1Cl [132′] | 7 (Level 7: growth control rate greater than or equal to 80% and less than 90%) | 7 (Level 7: growth control rate greater than or equal to 80% and less than 90%) | 0 | – | –
7 | Cc1cccc([C@H]2CN(C)C(=O)[C@@H]2C(=O)Nc2cnn(C)c2C)c1 [134′] | 7 (Level 7: growth control rate greater than or equal to 80% and less than 90%) | 7 (Level 7: growth control rate greater than or equal to 80% and less than 90%) | 0 | – | –
8 | Cc1cccc([C@H]2CN(C)C(=O)[C@@H]2C(=O)Nc2cnn(C)c2C(F)(F)F)c1 [136′] | 9 | 9 | 0 | – | –
9 | C=Cc1c(NC(=O)[C@H]2C(=O)N(C)C[C@@H]2c2cccc(C)c2)cnn1C [137′] | 5 (Level 5: growth control rate greater than or equal to 50% and less than 70%) | 6 (Level 6: growth control rate greater than or equal to 70% and less than 80%) | 0 | – | –
10 | Cc1cccc([C@H]2CN(C)C(=O)[C@@H]2C(=O)Nc2cnn(C(C)C)c2C2CC2)c1 [138′] | 6 (Level 6: growth control rate greater than or equal to 70% and less than 80%) | 7 (Level 7: growth control rate greater than or equal to 80% and less than 90%) | 0 | – | –
11 | CN1C[C@H](c2cccc(C3CC3)c2)[C@@H](C(=O)Nc2cnn(C)c2Cl)C1=O [151′] | 9 | – | 0 | – | –
12 | CN1C[C@H](c2cccc(C(F)(F)F)c2)[C@@H](C(=O)Nc2cnn(C)c2)C1=O [156′] | 7 (Level 7: growth control rate greater than or equal to 80% and less than 90%) | 9 | 0 | – | –
13 | C#CCn1ncc(NC(=O)[C@H]2C(=O)N(C)C[C@@H]2c2cccc(C(F)(F)F)c2)c1Cl [163′] | 8 (Level 8: growth control rate greater than or equal to 90% and less than 100%) | 9 | 0 | – | –
14 | CN1C[C@H](c2cccc(C(F)(F)F)c2)[C@@H](C(=O)Nc2cnn(C)c2C#N)C1=O [187′] | 9 | 9 | 0 | – | –
15 | Cc1c(NC(=O)[C@H]2C(=O)N(C)C[C@@H]2c2cccc(C(F)(F)F)c2)cnn1C [189′] | 9 | 9 | 0 | – | –
16 | COC(=O)c1c(NC(=O)[C@H]2C(=O)N(C)C[C@@H]2c2cccc(C(F)(F)F)c2)cnn1C [199′] | 6 (Level 6: growth control rate greater than or equal to 70% and less than 80%) | 6 (Level 6: growth control rate greater than or equal to 70% and less than 80%) | 0 | – | –
17 | Cc1nn(C(F)F)c(Cl)c1NC(=O)[C@H]1C(=O)N(C)C[C@@H]1c1cccc(C(F)(F)F)c1 [209′] | 6 (Level 6: growth control rate greater than or equal to 70% and less than 80%) | 7 (Level 7: growth control rate greater than or equal to 80% and less than 90%) | 0 | – | –

Row | Compound | Echinochloa phyllopogon activity level (growth control rate) (Echinochloa phyllopogon) | Echinochloa crusgalli activity level (growth control rate) (Echinochloa crusgalli; seedling stage sealing) | Huaidao (rice cultivar) plant damage level (Huaidao (rice cultivar)) | Echinochloa crusgalli activity level (growth control rate) (Echinochloa crusgalli; [1]) | Huaidao (rice cultivar) plant damage level (growth control rate) (Huaidao (rice cultivar))
18 | COc1cccc([C@H]2CN(C)C(=O)[C@@H]2C(=O)Nc2cnn(C(F)F)c2Cl)c1 [215′] | 8 (Level 8: growth control rate greater than or equal to 90% and less than 100%) | 9 | 0 | – | –
19 | CCc1ccc([C@H]2CN(C)C(=O)[C@@H]2C(=O)Nc2cnn(C)c2Cl)cc1 [244′] | 7 (Level 7: growth control rate greater than or equal to 80% and less than 90%) | 9 | 0 | – | –
20 | CCc1cc(C)cc([C@H]2CN(C)C(=O)[C@@H]2C(=O)Nc2cnn(C)c2Cl)c1 [287′] | 9 | – | 0 | – | –
21 | Cc1cc(C2CC2)cc([C@H]2CN(C)C(=O)[C@@H]2C(=O)Nc2cnn(C)c2Cl)c1 [289′] | 9 | – | 0 | – | –
22 | Cc1cc(C)cc([C@H]2CN(C)C(=O)[C@@H]2C(=O)N(CC2CC2)c2cnn(C)c2Cl)c1 [367′] | – | 9 | 1 (Level 1: growth control rate less than 10%) | – | –
23 | Cc1cccc([C@H]2CN(C)C(=O)[C@@H]2C(=O)Nc2cnn(C(C)(C)C)c2Cl)c1 [384′] | – | 6 (Level 6: growth control rate greater than or equal to 70% and less than 80%) | 0 | – | –
24 | Cc1cc(C)cc([C@H]2CN(C)C(=O)[C@@H]2C(=O)Nc2cnn(C)c2C(F)(F)C(F)(F)F)c1 [428′] | – | 6 (Level 6: growth control rate greater than or equal to 70% and less than 80%) | 0 | – | –
25 | COc1cc([C@H]2CN(C)C(=O)[C@@H]2C(=O)Nc2cnn(C)c2Cl)cc(OC)c1OC [449′] | – | – | – | 6 (Level 6: growth control rate greater than or equal to 70% and less than 80%) | 0
26 | Cc1cccc([C@H]2CN(C)C(=O)[C@@H]2C(=O)Nc2cnn(C(=O)OC(C)(C)C)c2Cl)c1 [463′] | – | – | – | 6 (Level 6: growth control rate greater than or equal to 70% and less than 80%) | 0
27 | CN1C[C@H](c2cccc(C(F)(F)F)c2)[C@@H](C(=O)Nc2cnn(C)c2C(N)=O)C1=O [482′] | – | – | – | 9 | 0
28 | Cc1cc(C)cc([C@H]2CN(C)C(=O)[C@@H]2C(=O)N(C)c2cnn(C)c2Cl)c1 [490′] | – | – | – | 9 | 0
29 | CN1C[C@H](c2cc(Br)cc(C(F)F)c2)[C@@H](C(=O)Nc2cnn(C)c2C2CC2)C1=O [513′] | – | – | – | 9 | 0
30 | Cc1cccc([C@H]2CN(C)C(=O)[C@@H]2C(=O)Nc2cnn(C)c2[S+](C)[O-])c1 (some centres unmarked) [530′] | – | – | – | 9 | 0
31 | Cc1cc(C)cc([C@H]2CN(C)C(=O)[C@@H]2C(=O)Nc2cnn(C)c2-c2cscn2)c1 [551′] | – | – | – | 9 | 0
32 | CN1CC(c2csc3ccccc23)C(C(=O)Nc2cnn(C)c2Cl)C1=O (centres unmarked) [Compound 359] | 7 (Level 7: growth control rate greater than or equal to 80% and less than 90%) | – | 0 | – | –
33 | CN1CC(c2cccc(C(F)(F)F)c2)C(C(=O)Nc2cnn(C)c2CF)C1=O (centres unmarked) [Compound 477] | – | – | – | 9 | 0
34 | Cc1cc(C)cc(C2CN(C)C(=O)C2C(=O)Nc2cnn(C)c2N(C)C)c1 (centres unmarked) [Compound 499] | – | – | – | 8 (Level 8: growth control rate greater than or equal to 90% and less than 100%) | 0
